Source: ChEMBL document CHEMBL1201862, “PubChem BioAssay data set” (2004)
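Results reflect a 48-hour exposure of cells in 96-well plates to compound at five concentrations. At the GI50, growth is halved.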 The source made the active and inactive calls. Cut-off read from the data, not from the text of the source: active = GI50 up to about 1.1 µM and inactive = higher.

Columns and labels:
Assay in all cases: inhibition of tumour cell growth, NCI panel, 48 h
786-0 = test system: 786-0
A498 = test system: A498
A549 = test system: A549
ACHN = test system: ACHN
BT-549 = test system: BT-549
CAKI-1 = test system: CAKI-1
CCRF-CEM = test system: CCRF-CEM
COLO 205 = test system: COLO 205
DU-145 = test system: DU-145
EKVX = test system: EKVX
HCT-116 = test system: HCT-116
HCT-15 = test system: HCT-15
HL-60 = test system: HL-60
HOP-62 = test system: HOP-62
HOP-92 = test system: HOP-92
HT-29 = test system: HT-29
Hs-578T = test system: Hs-578T
IGROV-1 = test system: IGROV-1
K562 = test system: K562
KM12 = test system: KM12
LOX IMVI = test system: LOX IMVI
M14 = test system: M14
MCF7 = test system: MCF7
MDA-MB-231 = test system: MDA-MB-231
MDA-MB-435 = test system: MDA-MB-435
MDA-N = test system: MDA-N
MOLT-4 = test system: MOLT-4
Malme-3M = test system: Malme-3M
NCI-H226 = test system: NCI-H226
NCI-H23 = test system: NCI-H23
NCI-H460 = test system: NCI-H460
NCI-H522 = test system: NCI-H522
NCI/ADR-RES = test system: NCI/ADR-RES
OVCAR-3 = test system: OVCAR-3
OVCAR-4 = test system: OVCAR-4
OVCAR-5 = test system: OVCAR-5
OVCAR-8 = test system: OVCAR-8
PC-3 = test system: PC-3
RPMI-8226 = test system: RPMI-8226
RXF 393 = test system: RXF 393
SF-268 = test system: SF-268
SF-295 = test system: SF-295
SF-539 = test system: SF-539
SK-MEL-28 = test system: SK-MEL-28
SK-MEL-2 = test system: SK-MEL-2
SK-MEL-5 = test system: SK-MEL-5
SK-OV-3 = test system: SK-OV-3
SN12C = test system: SN12C
SNB-19 = test system: SNB-19
SNB-75 = test system: SNB-75
SW-620 = test system: SW-620
T47D = test system: T47D
TK-10 = test system: TK-10
U-251 = test system: U-251
UACC-257 = test system: UACC-257
UACC-62 = test system: UACC-62
UO-31 = test system: UO-31

Structure (SMILES): O=C1N/C(=N/N=C/c2c[nH]c3ccccc23)N/C1=C\c1cccs1
- GI50 (786-0): > 100 µM (inactive)
- GI50 (A498): 16.2 µM (inactive)
- GI50 (A549): 76.6 µM (inactive)
- GI50 (ACHN): > 100 µM (inactive)
- GI50 (BT-549): > 100 µM (inactive)
- GI50 (CAKI-1): > 100 µM (inactive)
- GI50 (CCRF-CEM): 4.44 µM (inactive)
- GI50 (COLO 205): > 100 µM (inactive)
- GI50 (DU-145): > 100 µM (inactive)
- GI50 (EKVX): > 100 µM (inactive)
- GI50 (HCT-116): 53.8 µM (inactive)
- GI50 (HCT-15): > 100 µM
- GI50 (HL-60): 19.4 µM (inactive)
- GI50 (HOP-62): > 100 µM (inactive)
- GI50 (HOP-92): 49 µM (inactive)
- GI50 (HT-29): 52.2 µM (inactive)
- GI50 (Hs-578T): > 100 µM (inactive)
- GI50 (IGROV-1): > 100 µM (inactive)
- GI50 (K562): > 100 µM (inactive)
- GI50 (KM12): 55.8 µM (inactive)
- GI50 (LOX IMVI): 56.9 µM (inactive)
- GI50 (M14): 75.3 µM (inactive)
- GI50 (MCF7): 41.4 µM (inactive)
- GI50 (MDA-MB-231): 40.4 µM (inactive)
- GI50 (MDA-MB-435): 43.3 µM (inactive)
- GI50 (MDA-N): > 100 µM (inactive)
- GI50 (MOLT-4): > 100 µM (inactive)
- GI50 (Malme-3M): 61.8 µM (inactive)
- GI50 (NCI-H226): > 100 µM (inactive)
- GI50 (NCI-H23): > 100 µM (inactive)
- GI50 (NCI-H460): > 100 µM (inactive)
- GI50 (NCI-H522): > 100 µM (inactive)
- GI50 (NCI/ADR-RES): 55.3 µM (inactive)
- GI50 (OVCAR-3): 30.7 µM (inactive)
- GI50 (OVCAR-4): > 100 µM (inactive)
- GI50 (OVCAR-5): > 100 µM (inactive)
- GI50 (OVCAR-8): > 100 µM (inactive)
- GI50 (PC-3): 16.1 µM (inactive)
- GI50 (RPMI-8226): 40.4 µM (inactive)
- GI50 (RXF 393): 75.3 µM (inactive)
- GI50 (SF-268): > 100 µM (inactive)
- GI50 (SF-295): > 100 µM (inactive)
- GI50 (SF-539): > 100 µM (inactive)
- GI50 (SK-MEL-28): > 100 µM (inactive)
- GI50 (SK-MEL-2): 45.5 µM (inactive)
- GI50 (SK-MEL-5): 70.3 µM (inactive)
- GI50 (SK-OV-3): 38.6 µM (inactive)
- GI50 (SN12C): > 100 µM (inactive)
- GI50 (SNB-19): 14.8 µM (inactive)
- GI50 (SNB-75): > 100 µM (inactive)
- GI50 (SW-620): > 100 µM (inactive)
- GI50 (T47D): > 100 µM (inactive)
- GI50 (TK-10): > 100 µM (inactive)
- GI50 (U-251): 36.2 µM (inactive)
- GI50 (UACC-257): 77.3 µM (inactive)
- GI50 (UACC-62): 73.3 µM (inactive)
- GI50 (UO-31): > 100 µM (inactive)

Structure (SMILES): COC(=O)[C@@]12OC[C@]34[C@H]([C@@H](O)[C@@H]1O)[C@@]1(C)CC(=O)C(OC(C)=O)=C(C)[C@@H]1C[C@H]3OC(=O)[C@H](OC(=O)C=C(C)C)[C@@H]24
- GI50 (786-0): 0.895 µM (active)
- GI50 (A498): 0.43 µM (active)
- GI50 (A549): 0.838 µM (active)
- GI50 (ACHN): 1.82 µM (inactive)
- GI50 (BT-549): 1.52 µM (inactive)
- GI50 (CAKI-1): 2.7 µM (inactive)
- GI50 (COLO 205): 0.764 µM (active)
- GI50 (DU-145): 1.34 µM (inactive)
- GI50 (EKVX): 1.44 µM (inactive)
- GI50 (HCT-15): 1.77 µM
- GI50 (HOP-62): 0.607 µM (active)
- GI50 (HOP-92): 0.813 µM (active)
- GI50 (HT-29): 0.543 µM (active)
- GI50 (Hs-578T): 0.857 µM (active)
- GI50 (KM12): 0.596 µM (active)
- GI50 (M14): 0.755 µM (active)
- GI50 (MDA-MB-231): 1.81 µM (inactive)
- GI50 (MDA-MB-435): 0.738 µM (active)
- GI50 (MDA-N): 0.714 µM (active)
- GI50 (NCI-H226): 0.746 µM (active)
- GI50 (NCI-H23): 0.574 µM (active)
- GI50 (NCI/ADR-RES): 12.8 µM (inactive)
- GI50 (OVCAR-4): 0.752 µM (active)
- GI50 (OVCAR-5): 1.75 µM (inactive)
- GI50 (OVCAR-8): 0.743 µM (active)
- GI50 (PC-3): 0.948 µM (active)
- GI50 (RXF 393): 0.75 µM (active)
- GI50 (SF-268): 0.853 µM (active)
- GI50 (SF-295): 0.82 µM (active)
- GI50 (SK-MEL-2): 0.656 µM (active)
- GI50 (SN12C): 1.17 µM (inactive)
- GI50 (SNB-19): 0.627 µM (active)
- GI50 (SNB-75): 1.44 µM (inactive)
- GI50 (SW-620): 0.914 µM (active)
- GI50 (T47D): 0.977 µM (active)
- GI50 (TK-10): 1 µM (active)
- GI50 (UACC-257): 0.557 µM (active)
- GI50 (UACC-62): 0.721 µM (active)
- GI50 (UO-31): 2.64 µM (inactive)
